Reference: patent US4621083A, “PAF-antagonistic diazepines” (Boehringer Ingelheim KG, priority 1984, dated 1986)

test system: PAF-induced aggregation of human thrombocytes; test: Inhibition of PAF-induced blood platelet aggregation in vitro; assay type: cell-based; details: Homo sapiens, read-out: PAF-Antag. IC50
Procedure: 1. Inhibition of blood platelet aggregation in vitro
The PAF-induced aggregation of human thrombocytes in vitro is used to determine PAF-antagonistic activity. To obtain thrombocyte-rich plasma (TRP), blood is taken from an uncongested vein using a plastic syringe containing 3.8% sodium citrate solution. The ratio of sodium citrate solution to blood is 1:9. After careful mixing the citrate blood is centrifuged for 20 minutes at 150 g (1200 rpm). The thrombocyte aggregation is measured using the method devised by Born and Cross (G. V. R. Born and M. J. Cross, J. Physiol. 168, 178 (1963)), by adding an aggregation initiator (PAF) to the TRP with constant stirring.
The test substance is added 2 to 3 minutes before aggregation is initiated in a volume of 10 ul. Either distilled water, ethanol and/or dimethylsulphoxide (each in suitable concentrations) can be used as solvent.
Control mixtures contain corresponding volumes of these solvents. After the initial absorption has been recorded (2 to 3 minutes) aggregation is induced with PAF (5×10^-8 M).
The maximum of the first aggregation wave is used to assess the effects of the substance. The PAF-induced maximum absorption rate (=maximum aggregation×100%) is tested at the same time in a parallel mixture (=control mixture in one of the channels of the two-channel aggregometer) as each test mixture (second channel) and is used as a 100% value.
The aggregation value attained under the effect of the test substance is given as a percentage of the control value, i.e. less than 100% in the case of an inhibition of aggregation and over 100% in the case of an increase.
Each test substance is investigated at concentrations of from 10^-3 to 10^-8 M with a random sampling of n=4 with regard to an inhibitory effect on the PAF-induced thrombocyte aggregation. Then a concentration-activity curve is drawn up using 3 concentrations and the IC50 is determined (concentration giving a 50% inhibition of aggregation).

`Cc1nnc2n1-c1sc(CS(C)(=O)=O)cc1C(c1ccccc1Cl)=NC2` [compound 47] and `CCc1cc2c(s1)-n1c(C)nnc1CN=C2c1ccccc1Cl` [compound 8] cannot be ordered by IC50: under 10 µM for the first, under 5 µM for the second.

`Cc1nnc2n1-c1sc(Br)cc1C(c1ccccc1Cl)N(CCO)C2` (stereo not drawn) [compound 94] and `Cc1nnc2n1-c1sc(Br)cc1C(c1ccccc1Cl)N(C)C2` (stereo not drawn) [compound 95] are within 1.5-fold of each other in IC50: 11 µM for the first, 7.4 µM for the second.

First: CC(=O)c1ccc2c(c1)C(c1ccccc1)=NCc1nnc(C)n1-2 [compound 82]
Second: Cc1nnc2n1-c1ccc(Cl)cc1C(c1ccccc1)=NC2 [compound 3, Alprazolam, reference compound]
The IC50 of the first is 4.5-fold higher: 63 µM for the first, 14 µM for the second. The second is the more potent here.

Going from `CCOC(=O)c1ccc2c(c1)-n1c(C)nnc1CN=C2c1ccccc1` [compound 79] to `Cc1nnc2n1-c1ccccc1C(c1ccccc1)=NC2`, the IC50 falls from 38 µM to 16 µM (2.4-fold).

`CCOC(=O)c1ncc2n1-c1ccc(Cl)cc1C(c1ccccc1F)=NC2` [compound 70] and `Cc1ncc2n1-c1ccc(Cl)cc1C(c1ccccc1F)=NC2` [compound 31] are within 1.5-fold of each other in IC50: 730 µM for the first, 690 µM for the second.

First: COc1ccccc1C1NCc2nnc(C)n2-c2ccccc21 (stereo not drawn) [compound 99]
Second: Cc1ccccc1C1NCc2nnc(C)n2-c2ccccc21 (stereo not drawn) [compound 98]
The IC50 of the first is 3.5-fold higher: 218 µM for the first, 63 µM for the second. The second is the more potent here.

`Cc1nnc2n1-c1c(Cl)cccc1C(c1ccccc1Cl)=NC2` [compound 71] and `Cc1nnc2n1-c1cccc(Cl)c1C(c1ccccc1Cl)=NC2` [compound 64] are within 1.5-fold of each other in IC50: 300 µM for the first, 280 µM for the second.

`Cc1nnc2n1-c1sc3c(c1C(c1ccccc1Cl)=NC2)CCOC3` [compound 44] and `Cc1nnc2n1-c1sc3c(c1C(c1ccccc1Cl)=NC2)CCNC3` [compound 45] cannot be ordered by IC50: under 5 µM for the first, under 10 µM for the second.

First: Cc1nnc2n1-c1ccc(Cl)cc1C(c1ccccc1Cl)=NC2 [compound 4, Triazolam, reference compound]
Second: Cc1nnc2n1-c1cc(Cl)ccc1C(c1ccccc1Cl)=NC2 [compound 5]
The IC50 of the first is 33-fold lower: 9 µM for the first, 300 µM for the second. The first is the more potent here.

Going from `Cc1csc2c1-n1c(C)nnc1CN=C2c1ccccc1` [compound 22] to `Cc1nnc2n1-c1ccsc1C(c1ccccc1)=NC2` [compound 23], the IC50 falls from over 100 µM to 19.8 µM.

Compared with `Cc1nnc2n1-c1ccccc1C(c1ccccc1Cl)NC2` (stereo not drawn) [compound 85], `Cc1ccc2c(c1)-n1c(C)nnc1CNC2c1ccccc1Cl` (stereo not drawn) [compound 105] is 32-fold higher in IC50: 8.7 µM for the first, 277 µM for the second. The first is the more potent here.

Compared with `Cc1nnc2n1-c1cc(F)ccc1C(c1ccccc1Cl)=NC2` [compound 72], `Cc1ccc2c(c1)-n1c(C)nnc1CN=C2c1ccccc1Cl` [compound 73] is 4.3-fold higher in IC50: 56 µM for the first, 243 µM for the second.

`CC(C)(O)c1ccc2c(c1)C(c1ccccc1)=NCc1nncn1-2` [compound 81] and `Clc1ccc2c(c1)C(c1ccccc1Cl)=NCc1nncn1-2` [compound 54] are within 1.5-fold of each other in IC50: 103 µM for the first, 115 µM for the second.

`Clc1ccc2c(c1)C(c1ccccc1Cl)=NCc1nnc(Br)n1-2` [compound 57] and `COc1nnc2n1-c1ccc(Cl)cc1C(c1ccccc1Cl)=NC2` [compound 56] are within 1.5-fold of each other in IC50: 25 µM for the first, 20.6 µM for the second.

First: Cc1ccc2c(c1)C(c1ccccc1Cl)NCc1nnc(C)n1-2 (stereo not drawn) [compound 102]
Second: Cc1nnc2n1-c1ccc(Cl)cc1C(c1ccccc1Cl)NC2 (stereo not drawn) [compound 86]
The IC50 of the first is lower: under 5 µM for the first, 8.3 µM for the second. The first is the more potent here.

First: Cc1cc2c(cc1C)-n1c(C)cnc1CN=C2c1ccccc1Cl [compound 48]
Second: Cc1cc2c(cc1C)-n1c(C)nnc1CN=C2c1ccccc1Cl [compound 65]
The IC50 of the first is 2.4-fold higher: 528 µM for the first, 217 µM for the second.

Going from `Cc1nnc2n1-c1sc([N+](=O)[O-])cc1C(c1ccccc1Cl)=NC2` [compound 12] to `Cc1nnc2n1-c1sc(Br)cc1C(c1ccccc1Cl)=NC2` [compound 10], the IC50 falls from 2.6 µM to 0.5 µM (5.2-fold). The second is the more potent here.

`Cc1nnc2n1-c1sc(C[S+](C)[O-])cc1C(c1ccccc1Cl)=NC2` (stereo not drawn) [compound 46] and `CSCc1cc2c(s1)-n1c(C)nnc1CN=C2c1ccccc1Cl` [compound 11] cannot be ordered by IC50: under 10 µM for the first, under 5 µM for the second.

Going from `Cc1nnc2n1-c1sc(C#N)cc1C(c1ccccc1Cl)=NC2` [compound 58] to `Cc1nnc2n1-c1sc(Cl)cc1C(c1ccccc1Cl)=NC2` [compound 9], the IC50 falls from 3.8 µM to under 2 µM. The second is the more potent here.

Compared with `Cc1nnc2n1-c1cc(Cl)ccc1C(c1ccccc1Cl)NC2` (stereo not drawn) [compound 87], `COc1ccc2c(c1)C(c1ccccc1Cl)NCc1nnc(C)n1-2` (stereo not drawn) [compound 100] is lower in IC50: 190 µM for the first, under 50 µM for the second. The second is the more potent here.

`CCC1NC(c2ccccc2Cl)c2cc(Br)sc2-n2c(C)nnc21` (stereo not drawn) [compound 97] and `Cc1nnc2n1-c1sc(Br)cc1C(c1ccccc1Cl)NC2` (stereo not drawn) [compound 89] cannot be ordered by IC50: under 100 µM for the first, under 10 µM for the second.

Going from `Clc1ccccc1C1NCc2nncn2-c2sc(Br)cc21` (stereo not drawn) [compound 92] to `NCc1nnc2n1-c1sc(Br)cc1C(c1ccccc1Cl)NC2` (stereo not drawn) [compound 93], the IC50 falls from 140 µM to under 50 µM. The second is the more potent here.

Compared with `Cc1ccc2c(c1)C(c1ccccc1Cl)=NCc1nnc(C)n1-2` [compound 6], `COc1ccc2c(c1)C(c1ccccc1Cl)=NCc1nnc(C)n1-2` [compound 43] is 3.7-fold higher in IC50: 9.1 µM for the first, 33.3 µM for the second. The first is the more potent here.

Compared with `CCOC(=O)c1ccn2c1CN=C(c1ccccc1Cl)c1cc(Cl)ccc1-2` [compound 60], `Clc1ccc2c(c1)C(c1ccccc1Cl)=NCc1cncn1-2` [compound 61] is 1.8-fold lower in IC50: 444 µM for the first, 246 µM for the second. The second is the more potent here.

`Cc1nnc2n1-c1ccc([N+](=O)[O-])cc1C(c1ccccc1Cl)=NC2` [compound 62] and `Cc1nnc2n1-c1ccc(C#N)cc1C(c1ccccc1Cl)=NC2` [compound 75] cannot be ordered by IC50: 10 µM for the first, under 20 µM for the second.

Compared with `Cc1nnc2n1-c1ccccc1C(c1ccccc1Cl)=NC2` [compound 2], `Cc1nnc2n1-c1sccc1C(c1ccccc1Cl)=NC2` [compound 7] is 2.6-fold higher in IC50: 8.6 µM for the first, 22 µM for the second. The first is the more potent here.

First: Cc1nnc2n1-c1c(nnn1C)C(c1ccccc1Cl)=NC2 [compound 29]
Second: CCn1nc(C)c2c1-n1c(C)nnc1CN=C2c1ccccc1Cl [compound 27]
The IC50 of the first is 3.5-fold higher: 950 µM for the first, 270 µM for the second.

First: CC(=O)c1cc2c(s1)-n1c(C)nnc1CN=C2c1ccccc1Cl [compound 68]
Second: Cc1nnc2n1-c1sc(C(=O)O)cc1C(c1ccccc1Cl)=NC2 [compound 67]
The IC50 of the first is lower: under 10 µM for the first, over 100 µM for the second. The first is the more potent here.

Going from `Fc1ccccc1C1=NCc2cncn2-c2ccc(Cl)cc21` [compound 69] to `Clc1ccccc1C1=NCc2cncn2-c2sccc21` [compound 50], the IC50 falls from 580 µM to 87 µM (6.7-fold).

First: Cc1nc2c(s1)C(c1ccccc1)=NCc1nncn1-2 [compound 26]
Second: Clc1ccc2c(c1)C(c1ccccc1)=NCc1nnc(Br)n1-2 [compound 55]
The IC50 of the first is 5.9-fold higher: 700 µM for the first, 119 µM for the second. The second is the more potent here.

Compared with `CCOC(=O)c1ncn2c1CN=C(c1ccccc1Cl)c1cc(Br)sc1-2` [compound 52], `CCOC(=O)c1ncn2c1CN=C(c1ccccc1Cl)c1ccsc1-2` [compound 49] is 1.6-fold higher in IC50: 134 µM for the first, 210 µM for the second.

`Cc1nnc2n1-c1sc(Cl)cc1C(c1ccccc1Cl)NC2` (stereo not drawn) [compound 88] and `CCc1cc2c(s1)-n1c(C)nnc1CNC2c1ccccc1Cl` (stereo not drawn) [compound 90] cannot be ordered by IC50: under 5 µM for the first, under 5 µM for the second.

Going from `CC(=CC(=O)O)c1cc2c(s1)-n1c(C)nnc1CN=C2c1ccccc1Cl` [compound 59] to `CCOC(=O)C=C(C)c1cc2c(s1)-n1c(C)nnc1CN=C2c1ccccc1Cl` [compound 83], the IC50 falls from over 50 µM to under 50 µM. The second is the more potent here.

Going from `Cc1ccc2c(c1)C(c1ccccc1Cl)N(C)Cc1nnc(C)n1-2` (stereo not drawn) [compound 104] to `Cc1cc2c(cc1C)-n1c(C)nnc1CNC2c1ccccc1Cl` (stereo not drawn) [compound 101], the IC50 rises from 81 µM to 342 µM (4.2-fold).

Compared with `Cc1nnc2n1-c1sc(C(C)O)cc1C(c1ccccc1Cl)=NC2` (stereo not drawn) [compound 77], `Cc1nnc2n1-c1sc(CC(=O)O)cc1C(c1ccccc1Cl)=NC2` [compound 76] is higher in IC50: under 10 µM for the first, over 100 µM for the second. The first is the more potent here.

`COC(=O)c1ccc2c(c1)C(c1ccccc1)=NCc1ncc(C)n1-2` [compound 78] and `Cc1cnc2n1-c1sc(Br)cc1C(c1ccccc1Cl)=NC2` [compound 30] cannot be ordered by IC50: 8 µM for the first, under 10 µM for the second.

Going from `Clc1ccccc1C1=NCc2cncn2-c2sc(Br)cc21` [compound 53] to `Cc1nnc2n1-c1ccsc1C(c1ccccc1Cl)=NC2` [compound 24], the IC50 falls from 97.4 µM to 7.6 µM (13-fold). The second is the more potent here.

First: Clc1ccc2c(c1)C(c1ccccc1Cl)=NCc1nnc(C3CC3)n1-2 [compound 63]
Second: CN(C)CCc1nnc2n1-c1sc(Br)cc1C(c1ccccc1Cl)N(C)C2 (stereo not drawn) [compound 96]
The IC50 of the first is 3.7-fold lower: 7 µM for the first, 26 µM for the second.

Work on `Cc1nnc2n1-c1sc(Br)cc1C(c1ccccc1Br)NC2` (stereo not drawn) [compound 91] yielded an IC50 of under 5 µM.

same assay, conditions: table 3 (formula with R7), human thrombocyte-rich plasma, aggregation induced with PAF 5×10^-8 M, read-out: PAF-Antag. IC50

`CCOC(=O)c1nc(C)n2c1CNC(c1ccccc1Cl)c1cc(Cl)ccc1-2` (stereo not drawn) [compound 103] was tested, and the IC50 was 519 µM.
